The source of these data is PMC5186412 (Future medicinal chemistry, 2015).

Numbered stars: 1 amine (or outer) side, 2 acyl side, 3 side chain; on linkers, the order of the positions; unused ones are H or OH. Bridge positions count the residues as written; N and C are the ends. Square brackets hold non-standard residues; d marks the D form. Peptide text beside a SMILES is read from it. * marks the point of attachment. dLeu(3R-OH) = CC(C)[C@@H](O[*:3])[C@@H](N[*:1])C(=O)[*:2]; Gln(3S,4R-Me2) = C[C@H]([C@H](N)C(=O)O)[C@@H](C)C(N)=O; dTyr(βR-OMe) = CO[C@H](c1ccc(O)cc1)[C@@H](N)C(=O)O; Pip(4S-Cl) = O=C(O)[C@@H]1C[C@@H](Cl)CCN1; X6 = CCC(C)/C=C(C)/C=C\C(O)C(C)(O)C(=O)*; Abu(3R-NH2) = C[C@@H](N)[C@H](N)C(=O)O; NMeT = CN[C@H](C(=O)O)[C@@H](C)O

The conditions of the series: PAMPA; for logPe: 16 h.

destruxin E2 chlorohydrin returned a logPe of −7.35.
Consider `CC(C)[C@H]1C(=O)N(C)[C@@H](C)C(=O)NCCC[C@H](NC(=O)/C=C/C=C/C=O)C(=O)N1C` [sclerotiotide F], for which the logPe entry was “below the PAMPA assay’s detection limit”.
`CC[C@H](C)[C@@H]1NC(=O)c2csc(n2)[C@@H](C)NC(=O)[C@H]2N=C(O[C@@H]2C)[C@H](C(C)C)NC(=O)c2csc(n2)[C@@H](Cc2ccccc2)NC(=O)[C@H]2N=C1O[C@@H]2C` [Patellamide C] registered a logPe of −4.7.
As for `CCC(C)/C=C(C)/C=C\C(O)C(C)(O)C(=O)NCC(=O)N[C@H](C(=O)N[C@H](C(=O)N[C@H](C(=O)N[C@H]1C(=O)N[C@H](COC)C(=O)NCC(=O)N[C@@H](C)C(=O)N(C)[C@@H]([C@@H](C)O)C(=O)N[C@H]([C@H](OC)c2ccc(O)cc2)C(=O)N2CC[C@H](Cl)C[C@H]2C(=O)O[C@@H]1C(C)C)[C@@H](C)[C@@H](C)C(N)=O)[C@@H](C)N)[C@@H](C)O` (stereo partly drawn) [mirabamide C] (X6-GT[Abu(3R-NH2)][Gln(3S,4R-Me2)][dLeu(3R-OH)][dS](Me)GA[NMeT][dTyr(βR-OMe)][Pip(4S-Cl)]; ester 5-C), the “passive permeability (in words)” value was “poor passive permeability”.
Turning to destruxin B, the “passive permeability (in words)” value was “moderate permeability” and the logPe is listed as −5.29.
`CC(C)[C@H]1C(=O)O[C@H](C(C)C)C(=O)N(C)[C@@H](C(C)C)C(=O)O[C@H](C(C)C)C(=O)N(C)[C@@H](C(C)C)C(=O)O[C@H](C(C)C)C(=O)N1C` [Enniatin B] gave a logPe of −4.7.
As for `CC[C@@H](C)[C@@H]1NC(=O)CNC(=O)[C@@H](C)N(C)C(=O)[C@H](C(C)C)NC(=O)[C@H]([C@@H](C)O)N(C)C(=O)[C@H](C(C)C)NC(=O)[C@H]([C@@H](C)O)N(C)C(=O)[C@H](C(C)C)NC(=O)CNC(=O)[C@@H](Cc2ccccc2)N(C)C(=O)[C@H](C(C)C)NC(=O)[C@H](CO)NC(=O)[C@H](C(C)C)N(C)C(=O)[C@H](CO)N(C)C1=O` [verrucamide B], the “passive permeability (in words)” value is “poor passive permeability”.
Same read-out and setting: as for destruxin A, the entry is “moderate permeability”.
desmethyldestruxin B displayed a logPe of −6.67.
With tentoxin, the “passive permeability (in words)” value is “measurable permeability”.
